In patent publication US8507509B2, “Saturated and insaturated bi- or tricyclic aryloxyacetamine derivatives and their use as fungicides” (Syngenta Crop Protection LLC, priority 2007, dated 2013):

Key:
Plasmopara viticola = Plasmopara viticola (downy mildew of grapevine), grapevine leaf disk assay, preventive; format: in vivo; details: foliar, 168 h, 200 ppm, grapevine leaf disks, assessed seven days after inoculation, read-out: control of fungal infection, Plasmopara viticola
Septoria tritici = Septoria tritici (leaf blotch), liquid culture growth inhibition in nutrient broth; format: cell-based; details: Zymoseptoria tritici; 200 ppm; PDB broth, 24 C; inhibition of growth determined photometrically after 72 hrs; read-out: control of fungal infection, Septoria tritici
Pythium ultimum = Pythium ultimum (Damping off), liquid culture growth inhibition in potato dextrose broth; format: cell-based; details: Globisporangium ultimum; 20 ppm; potato dextrose broth, 24° C.; inhibition of growth determined photometrically after 48 hours; read-out: control of fungal infection, Pythium ultimum
[1] = test system: Erysiphe graminis f.sp. tritici; test: Erysiphe graminis f.sp. tritici (wheat powdery mildew), wheat leaf segment assay, preventive; format: in vivo; details: Blumeria graminis, foliar, 96 h; 200 ppm; wheat leaf segments; assessed four days after inoculation; read-out: control of fungal infection, Etysiphe graminis f.sp. tritici
Phytophthora infestans = test: whole plant or invertebrate; format: in vivo; details: in Solanum lycopersicum, foliar, 96 h, read-out: control of fungal infection, Phytophthora infestans

SMILES | pest or weed control at 200 ppm (Plasmopara viticola) [%] | inhibition of growth at 200 ppm (Septoria tritici) [%] | inhibition of growth at 20 ppm (Pythium ultimum) [%] | pest or weed control at 200 ppm [1] [%] | pest or weed control at 200 ppm (Phytophthora infestans) [%]
CSC(Oc1ccc2ncc(Br)cc2c1)C(=O)NC(C)(C)C=NOCC(C)C (centres unmarked) [Compound No. 18, 2-(3-Bromo-quinolin-6-yloxy)-N-(2-iso-butoxyimino-1,1-dimethyl-ethyl)-2-methylsulfanyl-acetamide] | ≥ 60 | ≥ 60 | – | – | –
CON=CC(C)(C)NC(=O)C(Cc1cc(C)c2ccsc2c1)SC (centres unmarked) [Compound No. 82, N-(2-Methoxyimino-1,1-dimethyl-ethyl)-3-(4-methyl-benzo[b]thiophen-6-yl)-2-methylsulfanyl-propionamide] | ≥ 60 | ≥ 60 | ≥ 60 | – | –
CSC(Oc1cc(C)c2ncc(I)cc2c1)C(=O)NC(C)(C)CC=NOC(C)(C)C (centres unmarked) [Compound No. 43, N-(3-tert-Butoxyimino-1,1-dimethyl-propyl)-2-(3-iodo-8-methyl-quinolin-6-yloxy)-2-methylsulfanyl-acetamide] | – | ≥ 60 | – | – | –
CCON=CC(C)(C)NC(=O)C(Oc1cc(Cl)c2ncc(Br)cc2c1)SC (centres unmarked) [Compound No. 36, 2-(3-Bromo-8-chloro-quinolin-6-yloxy)-N-(2-ethoxyimino-1,1-dimethyl-ethyl)-2-methylsulfanyl-acetamide] | ≥ 60 | ≥ 60 | – | ≥ 60 | –
C#Cc1cnc2c(C)cc(OC(CC)C(=O)NC(C)(C)C=NOC(C)(C)C)cc2c1 (centres unmarked) [Compound No. 137, N-(2-tert-Butoxyimino-1,1-dimethyl-ethyl)-2-(3-ethynyl-8-methyl-quinolin-6-yloxy)-butyramide] | – | ≥ 60 | – | ≥ 60 | –
CCON=C(Cc1ccccn1)C(C)(C)NC(=O)C(Oc1ccc2ncc(Br)cc2c1)SC (centres unmarked) [Compound No. 128, 2-(3-Bromo-quinolin-6-yloxy)-N-{2-[(E or Z)-ethoxyimino]-1,1-dimethyl-3-pyridin-2-yl-propyl}-2-methylsulfanyl-acetamide] | – | ≥ 60 | ≥ 60 | – | –
CSC(Oc1cc(C)c2ncc(Br)cc2c1)C(=O)NC(C)(C)C=NOCc1ccccc1 (centres unmarked) [Compound No. 110, N-(2-Benzyloxyimino-1,1-dimethyl-ethyl)-2-(3-bromo-8-methyl-quinolin-6-yloxy)-2-methylsulfanyl-acetamide] | – | ≥ 60 | – | – | –
CCCCON=CC(C)(C)NC(=O)C(Oc1ccc2ncc(Br)cc2c1)SC (centres unmarked) [Compound No. 14, 2-(3-Bromo-quinolin-6-yloxy)-N-(2-butoxyimino-1,1-dimethyl-ethyl)-2-methylsulfanyl-acetamide] | ≥ 60 | – | ≥ 60 | – | ≥ 60
C#Cc1cnc2c(C)cc(OC(CC)C(=O)NC(C)(C)C=NOCC(C)C)cc2c1 (centres unmarked) [Compound No. 136, 2-(3-Ethynyl-8-methyl-quinolin-6-yloxy)-N-(2-isobutoxyimino-1,1-dimethyl-ethyl)-butyramide] | – | ≥ 60 | – | – | –
C=CCON=CC(C)(C)NC(=O)C(CC)Oc1cc(C)c2ncc(I)cc2c1 (centres unmarked) [Compound No. 7, N-(2-allyloxyimino-1,1-dimethyl-ethyl)-2-(3-iodo-8-methyl-quinolin-6-yloxy)-butyramide] | – | ≥ 60 | – | ≥ 60 | –
CSC(Oc1cc(C)c2ncc(Br)cc2c1)C(=O)NC(C)(C)C=NOC(C)(C)C (centres unmarked) [Compound No. 22, 2-(3-Bromo-8-methyl-quinolin-6-yloxy)-N-(2-tert-butoxyimino-1,1-dimethyl-ethyl)-2-methylsulfanyl-acetamide] | – | ≥ 60 | – | – | –
C=CCON=CC(C)(C)NC(=O)C(Oc1cc(C)c2ncc(Br)cc2c1)SC (centres unmarked) [Compound No. 28, N-(2-Allyloxyimino-1,1-dimethyl-ethyl)-2-(3-bromo-8-methyl-quinolin-6-yloxy)-2-methylsulfanyl-acetamide] | ≥ 60 | ≥ 60 | – | – | –
CSC(Oc1ccc2ncc(Br)cc2c1)C(=O)NC(C)(C)C=NOC(C)(C)C (centres unmarked) [Compound No. 12, 2-(3-Bromo-quinolin-6-yloxy)-N-(2-tert-butoxyimino-1,1-dimethyl-ethyl)-2-methylsulfanyl-acetamide] | – | ≥ 60 | ≥ 60 | – | –
CSC(Oc1cc(C)c2ncc(I)cc2c1)C(=O)NC(C)(C)CC=NOCc1ccccc1 (centres unmarked) [Compound No. 47, N-(3-Benzyloxyimino-1,1-dimethyl-propyl)-2-(3-iodo-8-methyl-quinolin-6-yloxy)-2-methylsulfanyl-acetamide] | ≥ 60 | ≥ 60 | – | – | –
CCON=CC(C)(C)NC(=O)C(CC)Oc1ccc2ncc(I)cc2c1 (centres unmarked) [Compound No. 3, N-(2-Ethoxyimino-1,1-dimethyl-ethyl)-2-(3-iodo-quinolin-6-yloxy)-butyramide] | ≥ 60 | ≥ 60 | – | ≥ 60 | ≥ 60
C=CCON=C(Cc1ccsc1)C(C)(C)NC(=O)C(Oc1ccc2ncc(Br)cc2c1)SC (centres unmarked) [Compound No. 126, N-{2-[(E or Z)-Allyloxyimino]-1,1-dimethyl-3-thiophen-3-yl-propyl}-2-(3-bromo-quinolin-6-yloxy)-2-methylsulfanyl-acetamide] | ≥ 60 | ≥ 60 | – | – | –
CON=CC(C)(C)NC(=O)C(Oc1cc(Cl)c2ncc(Br)cc2c1)SC (centres unmarked) [Compound No. 35, 2-(3-Bromo-8-chloro-quinolin-6-yloxy)-N-(2-methoxyimino-1,1-dimethyl-ethyl)-2-methylsulfanyl-acetamide] | – | ≥ 60 | ≥ 60 | – | –
CON=C(Cc1ccccn1)C(C)(C)NC(=O)C(Oc1ccc2ncc(Br)cc2c1)SC (centres unmarked) [Compound No. 127, 2-(3-Bromo-quinolin-6-yloxy)-N-{2-[(E or Z)-methoxyimino]-1,1-dimethyl-3-pyridin-2-yl-propyl}-2-methylsulfanyl-acetamide] | ≥ 60 | ≥ 60 | ≥ 60 | – | –
CCCCON=CC(C)(C)NC(=O)C(Oc1cc(C)c2ncc(Br)cc2c1)SC (centres unmarked) [Compound No. 30, 2-(3-Bromo-8-methyl-quinolin-6-yloxy)-N-(2-butoxyimino-1,1-dimethyl-ethyl)-2-methylsulfanyl-acetamide] | – | ≥ 60 | – | – | –
CCC(Oc1ccc2ncc(Br)cc2c1)C(=O)NC(C)(C)C=NO (centres unmarked) [Compound No. 150, 2-(3-Bromo-quinolin-6-yloxy)-N-(2-hydroxyimino-1,1-dimethyl-ethyl)-butyramide] | – | – | ≥ 60 | – | ≥ 60
CSC(Oc1cc(C)c2ncc(Br)cc2c1)C(=O)NC(C)(C)C=NOCC(C)C (centres unmarked) [Compound No. 25, 2-(3-Bromo-8-methyl-quinolin-6-yloxy)-N-(2-isobutoxyimino-1,1-dimethyl-ethyl)-2-methylsulfanyl-acetamide] | – | ≥ 60 | – | – | –
CCc1cc(OC(SC)C(=O)NC(C)(C)C=NOC)cc2cc(Br)cnc12 (centres unmarked) [Compound No. 133, 2-(3-Bromo-8-ethyl-quinolin-6-yloxy)-N-(2-methoxyimino-1,1-dimethyl-ethyl)-2-methylsulfanyl-acetamide] | ≥ 60 | ≥ 60 | – | – | –
CCON=C(Cc1ccsc1)C(C)(C)NC(=O)C(Oc1ccc2ncc(Br)cc2c1)SC (centres unmarked) [Compound No. 125, 2-(3-Bromo-quinolin-6-yloxy)-N-{2-[(E or Z)-ethoxyimino]-1,1-dimethyl-3-thiophen-3-yl-propyl}-2-methylsulfanyl-acetamide] | ≥ 60 | ≥ 60 | – | – | –
CON=C(C)CC(C)(C)NC(=O)C(Oc1ccc2ncc(Br)cc2c1)SC (centres unmarked) [Compound No. 104, 2-(3-Bromo-quinolin-6-yloxy)-N-(3-methoxyimino-1,1-dimethyl-butyl)-2-methylsulfanyl-acetamide] | ≥ 60 | – | – | ≥ 60 | ≥ 60
CSC(Oc1ccc2ncc(Br)cc2c1)C(=O)NC(C)(C)C=NOCc1ccccc1 (centres unmarked) [Compound No. 109, N-(2-Benzyloxyimino-1,1-dimethyl-ethyl)-2-(3-bromo-quinolin-6-yloxy)-2-methylsulfanyl-acetamide] | ≥ 60 | ≥ 60 | – | – | ≥ 60
CCOC(=O)C(C)(C)O/N=C/C(C)(C)NC(=O)C(Oc1cc(C)c2ncc(Br)cc2c1)SC (centres unmarked) [Compound No. 24, 2-[2-[2-(3-Bromo-8-methyl-quinolin-6-yloxy)-2-methylsulfanyl-acetylamino]-2-methyl-prop-(E)-ylideneaminooxy]-2-methyl-propionic acid ethyl ester] | – | ≥ 60 | – | – | –
CON=CC(C)(C)NC(=O)C(Oc1ccc2ncc(C#C[Si](C)(C)C)cc2c1)SC (centres unmarked) [Compound No. 37, N-(2-methoxyimino-1,1-dimethyl-ethyl)-2-methylsulfanyl-2-(3-trimethylsilanylethynyl-quinolin-6-yloxy)-acetamide] | ≥ 60 | ≥ 60 | – | ≥ 60 | ≥ 60
CSC(Oc1ccc2ncc(Br)cc2c1)C(=O)NC(C)(C)C=NOCc1ccc(Cl)cc1 (centres unmarked) [Compound No. 9, 2-(3-Bromo-quinolin-6-yloxy)-N-[2-(4-chloro-benzyloxyimino)-1,1-dimethyl-ethyl]-2-methylsulfanyl-acetamide] | – | ≥ 60 | – | – | –
CON=CCC(C)(C)NC(=O)C(Oc1ccc2ncc(I)cc2c1)SC (centres unmarked) [Compound No. 92, 2-(3-iodo-quinolin-6-yloxy)-N-(3-methoxyimino-1,1-dimethyl-propyl)-2-methylsulfanyl-acetamide] | – | – | ≥ 60 | – | –
